This note sets out measurements from PubChem BioAssay (NCI).

Test systems include SK-MEL-5 melanoma; T-47D breast; M14 melanoma; ACHN renal; LOX IMVI melanoma; SF-268 CNS; SK-OV-3 ovarian; UACC-257 melanoma; NCI/ADR-RES ovarian; HCT-116 colon; CCRF-CEM leukemia.
Common to all, as to assay: growth of human tumour cells (NCI), 48 h

SMILES strings stand for the structures.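 1) Cells in 96-well plates. 2) Compound, 48 h, 5 concentrations. 3) Linear interpolation between surrounding doses. 4) Unreached endpoint = highest concentration. The concentration for full growth arrest is given as TGI.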 Where a SMILES comes first, the peptide text is derived from it. [ ]: non-standard residue; d: D form. The star is where a group is joined. ξ: configuration not given here. NMeF = CN[CH](Cc1ccccc1)C(=O)O; ξNMe2Val = CC(C)C(C(=O)*)N(C)C; NMeV = CN[CH](C(=O)O)C(C)C; ξNMeV = CNC(C(=O)O)C(C)C; Boc = CC(C)(C)OC(=O)*; OBn = c1ccc(CO*)cc1; OtBu = CC(C)(C)O*

For `CC(=O)[C@@]1(c2ccccc2)CC2(CCN(C)CC2)O[C@H]1C`, the TGI with SK-MEL-5 melanoma, in the experiment with T-47D breast, with M14 melanoma, in the experiment on ACHN renal, in the experiment with LOX IMVI melanoma and in the experiment with SF-268 CNS was > 100 µM in each case. The TGI in the experiment with SK-OV-3 ovarian, in the experiment with UACC-257 melanoma, in the experiment with NCI/ADR-RES ovarian and in the experiment on HCT-116 colon was > 100 µM in each case.

For the compound `COc1ccc([C@H]2CC3C(=O)N(c4ccc(OC)cc4)C(=O)C3c3[nH]c4ccccc4c32)cc1` (stereo partly drawn), the TGI in the experiment on SK-MEL-5 melanoma, in the experiment with M14 melanoma, with ACHN renal, in the experiment with LOX IMVI melanoma, in the experiment with SF-268 CNS and with SK-OV-3 ovarian was > 100 µM each time. Moreover, the TGI with UACC-257 melanoma, in the experiment on CCRF-CEM leukemia and with HCT-116 colon was > 100 µM in each case.

For the compound `CN(C)CCC[N+]1=Nc2cccc3cccc(c23)N1`, the TGI in the experiment on SK-MEL-5 melanoma was 34.2 µM; in the experiment with M14 melanoma, 39 µM; in the experiment with ACHN renal, > 100 µM; with LOX IMVI melanoma, > 100 µM; with SF-268 CNS, > 100 µM; in the experiment with SK-OV-3 ovarian, > 100 µM. For the same compound, the figures for the TGI in the experiment on UACC-257 melanoma, with CCRF-CEM leukemia and in the experiment on HCT-116 colon were > 100 µM, 80.8 µM and > 100 µM, respectively.

As for `CSc1nc(NCc2ccccc2)c2cnn(COCCO)c2n1`, the TGI with SK-MEL-5 melanoma is > 100 µM; with T-47D breast, > 100 µM; in the experiment on M14 melanoma, > 100 µM; in the experiment with ACHN renal it was 62.1 µM; with LOX IMVI melanoma, > 100 µM; with SF-268 CNS, > 100 µM. For the same compound, the TGI with SK-OV-3 ovarian is > 100 µM; in the experiment with UACC-257 melanoma it was 64 µM; in the experiment with CCRF-CEM leukemia it was > 100 µM; in the experiment with NCI/ADR-RES ovarian, > 100 µM; with HCT-116 colon it was > 100 µM.

Regarding `CC(C)C(C(=O)N(C)[C@H](C(=O)N1CCC[C@H]1C(=O)N(C)[C@@H](Cc1ccccc1)C(=O)OCc1ccccc1)C(C)C)N(C)C(=O)[C@@H](NC(=O)OC(C)(C)C)C(C)C` (stereo partly drawn) (Boc-V[ξNMeV][NMeV]P[NMeF]-OBn), the TGI in the experiment with SK-MEL-5 melanoma was 15.5 µM; in the experiment on M14 melanoma it was > 100 µM; in the experiment with ACHN renal, > 100 µM; in the experiment on LOX IMVI melanoma, > 31.6 µM; in the experiment on SF-268 CNS it was > 31.6 µM; in the experiment with SK-OV-3 ovarian, > 31.6 µM. In addition, the TGI with UACC-257 melanoma, in the experiment with CCRF-CEM leukemia and in the experiment with HCT-116 colon was > 31.6 µM each time.

With `Cc1ccnc(Nc2[nH]c(C(=O)c3ccc(Cl)cc3)c(N)c2C(=S)Nc2ccccc2)c1`, the TGI is > 100 µM in the experiment with T-47D breast; 31.9 µM with M14 melanoma; 55.8 µM in the experiment with ACHN renal; 28.3 µM in the experiment with LOX IMVI melanoma; 59.8 µM with SF-268 CNS; 35 µM with SK-OV-3 ovarian. Also, the TGI is 32.7 µM with UACC-257 melanoma, > 100 µM with CCRF-CEM leukemia, 11.1 µM in the experiment with NCI/ADR-RES ovarian and 30 µM in the experiment on HCT-116 colon.

In the case of `Brc1ccc(-c2cc3c(cc2C2SCCS2)OCO3)cc1`, the TGI with SK-MEL-5 melanoma, in the experiment on M14 melanoma, in the experiment on ACHN renal, with LOX IMVI melanoma, in the experiment with SF-268 CNS and with SK-OV-3 ovarian was > 100 µM each time. For the same compound, the TGI in the experiment on UACC-257 melanoma, with CCRF-CEM leukemia and with HCT-116 colon was > 100 µM each time.

Regarding `Cc1nn2c(c1C#N)NNc1c-2sc(=N)nnc1=O`, the TGI in the experiment with SK-MEL-5 melanoma, in the experiment on M14 melanoma, with SF-268 CNS, in the experiment with SK-OV-3 ovarian, with CCRF-CEM leukemia and in the experiment on HCT-116 colon was > 100 µM throughout.

With `CC(C)C(C(=O)N(C)C(Cc1ccccc1)C(=O)N(C)C(C(=O)N(C)C(C(=O)N1CCCC1C(=O)OC(C)(C)C)C(C)C)C(C)C)N(C)C` (stereo not drawn) (ξNMe2Val-[NMeF][NMeV][NMeV]P-OtBu; configuration not given here), the TGI with SK-MEL-5 melanoma was 38.8 µM; with M14 melanoma it was 51.2 µM; with ACHN renal it was > 100 µM; in the experiment with LOX IMVI melanoma it was 55.5 µM; in the experiment with SF-268 CNS it was > 100 µM; with UACC-257 melanoma, > 100 µM. Besides, the TGI with CCRF-CEM leukemia and in the experiment on HCT-116 colon was > 100 µM in each case.

With `CCCCCCCCCCCC[N+]12CC[N+](C)(CC1)CC2`, the TGI is > 100 µM in the experiment on SK-MEL-5 melanoma; > 100 µM with M14 melanoma; > 100 µM in the experiment on ACHN renal; 43 µM in the experiment with LOX IMVI melanoma; 53.3 µM in the experiment with SF-268 CNS; > 100 µM with SK-OV-3 ovarian. For the same compound, the TGI with UACC-257 melanoma was > 100 µM; in the experiment on CCRF-CEM leukemia it was 53.3 µM; with HCT-116 colon, > 100 µM.

For `N#COc1ccc(Oc2ccc(OC#N)cc2)cc1`, the TGI with SK-MEL-5 melanoma is > 100 µM; in the experiment on M14 melanoma, > 100 µM; in the experiment on ACHN renal it was > 100 µM; with LOX IMVI melanoma it was 33.9 µM; with SF-268 CNS, > 100 µM; with SK-OV-3 ovarian, > 100 µM. The values for the TGI with UACC-257 melanoma, in the experiment with CCRF-CEM leukemia and with HCT-116 colon were > 100 µM, 50.4 µM and > 100 µM, respectively.

Take `CSC(C1c2ccccc2N(C)c2[nH]c(=O)n(C)c(=O)c21)S(=O)(=O)c1ccc(C)cc1` (stereo not drawn): the TGI in the experiment on SK-MEL-5 melanoma, in the experiment on LOX IMVI melanoma, in the experiment with SF-268 CNS, with SK-OV-3 ovarian, with UACC-257 melanoma and in the experiment on CCRF-CEM leukemia was > 100 µM in each case. Besides, the TGI in the experiment with HCT-116 colon is > 100 µM.

On to `CC(=O)OCC1OC(N=[N+]=[N-])C(OC(C)=O)C(OC(C)=O)C1OC1OC(COC(C)=O)C(OC(C)=O)C(OC(C)=O)C1OC(C)=O` (stereo not drawn), for which the TGI in the experiment on SK-MEL-5 melanoma, with M14 melanoma, with ACHN renal, in the experiment on LOX IMVI melanoma, with SF-268 CNS and with SK-OV-3 ovarian was > 100 µM throughout. Further, the TGI in the experiment with UACC-257 melanoma and in the experiment with CCRF-CEM leukemia was > 100 µM in each case.

On to `CCN(C(=O)N[C@H](C(=O)N[C@@H](CSC)C(=O)N[C@@H](C)C(=O)OC)C(C)C)c1ccccc1`, for which the TGI in the experiment with SK-MEL-5 melanoma came to 30.8 µM; in the experiment on T-47D breast it was 76.3 µM; in the experiment with M14 melanoma, 28.7 µM; in the experiment on ACHN renal it was 28.9 µM; in the experiment with LOX IMVI melanoma, 23.5 µM; with SK-OV-3 ovarian, 30.7 µM. The TGI was 25 µM with UACC-257 melanoma, 19.3 µM in the experiment on CCRF-CEM leukemia, > 100 µM with NCI/ADR-RES ovarian and 30.9 µM in the experiment with HCT-116 colon.

For `CCO/C(O)=c1/s/c(=C(\C#N)c2nc3ccccc3[nH]2)n(-c2ccccc2)c1=N`, the TGI with SK-MEL-5 melanoma, with M14 melanoma, with ACHN renal, in the experiment on LOX IMVI melanoma, in the experiment on SF-268 CNS and with SK-OV-3 ovarian was > 100 µM each time. Also, the TGI with UACC-257 melanoma, in the experiment with CCRF-CEM leukemia and with HCT-116 colon was > 100 µM throughout.

For the compound `COC(=O)C(CCC1(C)OCCO1)=[N+]=[N-]`, the TGI with SK-MEL-5 melanoma, in the experiment with M14 melanoma, in the experiment with ACHN renal, in the experiment with LOX IMVI melanoma, in the experiment with SF-268 CNS and with SK-OV-3 ovarian was > 100 µM throughout. Also, the TGI in the experiment on UACC-257 melanoma, in the experiment with CCRF-CEM leukemia and with HCT-116 colon was > 100 µM throughout.

As for `Cc1ccc(NC(=O)C2C3CCC(O3)C2C(=O)O)cc1` (stereo not drawn), the TGI with SK-MEL-5 melanoma is > 100 µM; with M14 melanoma, > 76.4 µM; in the experiment on ACHN renal, > 100 µM; in the experiment with LOX IMVI melanoma, > 54.8 µM; in the experiment on SF-268 CNS, > 73.2 µM; in the experiment on SK-OV-3 ovarian, > 100 µM. In addition, the values for the TGI in the experiment on UACC-257 melanoma, with CCRF-CEM leukemia and with HCT-116 colon were > 100 µM, > 75.5 µM and > 54.7 µM, respectively.

Regarding `COc1cc2c[n+](C)c3c4cc(OC)c(OCc5ccccc5)cc4c(OCc4ccccc4)cc3c2cc1OC`, the TGI is 6.77 µM in the experiment with SK-MEL-5 melanoma; 21.6 µM with T-47D breast; 21.6 µM in the experiment with M14 melanoma; > 100 µM with ACHN renal; 18 µM in the experiment on LOX IMVI melanoma; 17.4 µM in the experiment on SF-268 CNS. For the same compound, the TGI in the experiment on SK-OV-3 ovarian is > 52.8 µM; in the experiment with UACC-257 melanoma, 14.4 µM; with CCRF-CEM leukemia, 72.4 µM; in the experiment on NCI/ADR-RES ovarian, > 100 µM; in the experiment with HCT-116 colon, 22 µM.

On to `NC1=Nc2ccccc2Sc2cccc(F)c21`, for which the TGI in the experiment on SK-MEL-5 melanoma, with T-47D breast, with M14 melanoma, in the experiment on ACHN renal, in the experiment with LOX IMVI melanoma and in the experiment with SF-268 CNS was > 100 µM in each case. For the same compound, the TGI was > 100 µM in the experiment on SK-OV-3 ovarian; > 100 µM in the experiment with UACC-257 melanoma; 56.9 µM in the experiment on CCRF-CEM leukemia; > 100 µM in the experiment with NCI/ADR-RES ovarian; > 100 µM with HCT-116 colon.

Turning to `COc1cc(S(=O)(=O)Nc2ccc(-c3csc(N4C(=O)CSC4c4ccccc4O)n3)cc2)ccc1Cl` (stereo not drawn), the TGI in the experiment with SK-MEL-5 melanoma, in the experiment on M14 melanoma, in the experiment with ACHN renal, in the experiment with LOX IMVI melanoma, with SF-268 CNS and in the experiment on SK-OV-3 ovarian was > 100 µM in each case. In addition, the TGI was 97.6 µM in the experiment on UACC-257 melanoma, > 100 µM in the experiment on CCRF-CEM leukemia, > 100 µM in the experiment on NCI/ADR-RES ovarian and > 100 µM in the experiment on HCT-116 colon.
